This is an account of results in patent US9636335B2, “Heteroaryl compounds as 5-HT4 receptor ligands” (Suven Life Sciences Ltd, priority 2011, dated 2017).

The EC50 is the midpoint of the concentration-response curve. A word on the Tmax: it is the time from dosing to the highest level. For orientation: AUC(0-t) means the area under the concentration-time curve up to a stated or last time point. The low end stands for less exposure, the high end for more exposure. Usually half-life stands for the time needed for the level to fall by half in the phase considered. A high value points to slow decline.

The target in data set [1] is recombinant human 5-HT4 receptor (Homo sapiens (Human), UniProt Q13639). The data set is described as follows: Determination of EC50 values for 5-HT4 receptor (CHO cells, pCRE-Luc reporter). As to conditions: CHO cells expressing human 5-HT4 receptor, luciferase activity, 4 hours incubation. It is filed as cell-based. As to the method:
A stable CHO cell line expressing recombinant human 5-HT4 receptor and pCRE-Luc reporter system was used for cell-based assay. The assay offers a non-radioactive based approach to determine binding of a compound to GPCRs. In this specific assay, the level of intracellular cyclic AMP which is modulated by activation or inhibition of the receptor is measured. The recombinant cells harbor luciferase reporter gene under the control of cAMP response element.
The above cells were grown in 96 well clear bottom white plates in Hams F12 medium containing 10% fetal bovine serum (FBS). Prior to the addition of compounds or standard agonist, cells were serum starved overnight. Increasing concentrations of test compounds were added in OptiMEM medium to the cells. The incubation was continued at 37° C. in CO2 incubator for 4 hours. Medium was removed and cells were washed with phosphate buffered saline. The cells were lysed and luciferase activity was measured in a Luminometer. Luminescence units were plotted against the compound concentrations using Graphpad software.

Another data set relates to Male Wister rats. The experiment in a line: Object recognition task model. It is filed as in vivo. As to conditions: 3 mg/kg, p.o., rat. As to the method:
The cognition enhancing properties of compounds of this invention were estimated by using this model.
Male Wister rats (230-280 grams) were used as experimental animals. Four animals were housed in each cage. […] Also the rats were habituated to individual arenas for 1 hour in the absence of any objects.
One group of 12 rats received vehicle (1 mL/Kg) orally and another set of animals received compound of the formula (I) either orally or i.p., before one hour of the familiar (T1) and choice trial (T2).
The experiment was carried out in a 50×50×50 cm open field made up of acrylic. In the familiarization phase, (T1), the rats were placed individually in the open field for 3 minutes, in which two identical objects (plastic bottles, 12.5 cm height×5.5 cm diameter) covered in yellow masking tape alone (a1 and a2) were positioned in two adjacent corners, 10 cms from the walls. After 24 hours of the (T1) trial for long-term memory test, the same rats were placed in the same arena as they were placed in T1 trial. Choice phase (T2) rats were allowed to explore the open field for 3 minutes in presence of one familiar object (a3) and one novel object (b) (Amber color glass bottle, 12 cm high and 5 cm in diameter). Familiar objects presented similar textures, colors and sizes. During the T1 and T2 trial, explorations of each object (defined as sniffing, licking, chewing or having moving vibrissae whilst directing the nose towards the object at a distance of less than 1 cm) were recorded separately by stopwatch. […] T1 is the total time spent exploring the familiar objects (a1+a2). T2 is the total time spent exploring the familiar object and novel object (a3+b).

Data set [2] can be described thus: Rodent pharmacokinetic study. Conditions: plasma, Wistar/Male rat. Format: in vivo, Male Wister rats. As to the method: Three to five animals were housed in each cage. […] Animals were fasted over night before oral dosing (p.o) and food pellets were allowed 2 hours post dosing, whereas intravenous dosing food and water were provided as ad libitum. Three rats were dosed with compounds of formula (I) (10 mg/kg) orally and intravenously (05 mg/kg).
At each time point blood was collected through jugular vein and immediately replenish with an equivalent volume of normal saline from freely moving rats. Collected blood was transferred into a labeled eppendr off containing 10 μL of heparin as anticoagulant. Typically blood samples were collected as following time points: Pre dose, 0.08 (only i.v.), 0.25, 0.5, 1, 2, 4, 6, 8, and 24 hours post dose (n=3). Blood was centrifuged at 4000 rpm for 10 minutes. Plasma was prepared and stored frozen at −20° C. until analysis.
Pharmacokinetic parameters Cmax, Tmax, AUCt, T1/2 and Bioavailability were calculated by non-compartmental model using standard non-compartmental model by using WinNonLin 5.0.1 or Phoenix WinNonlin 6.2 version Software package.

Structures are written as SMILES. Structures can show the parent of a compound that is named as a salt.

Sequence of recombinant human 5-HT4 receptor (Q13639 whole entry): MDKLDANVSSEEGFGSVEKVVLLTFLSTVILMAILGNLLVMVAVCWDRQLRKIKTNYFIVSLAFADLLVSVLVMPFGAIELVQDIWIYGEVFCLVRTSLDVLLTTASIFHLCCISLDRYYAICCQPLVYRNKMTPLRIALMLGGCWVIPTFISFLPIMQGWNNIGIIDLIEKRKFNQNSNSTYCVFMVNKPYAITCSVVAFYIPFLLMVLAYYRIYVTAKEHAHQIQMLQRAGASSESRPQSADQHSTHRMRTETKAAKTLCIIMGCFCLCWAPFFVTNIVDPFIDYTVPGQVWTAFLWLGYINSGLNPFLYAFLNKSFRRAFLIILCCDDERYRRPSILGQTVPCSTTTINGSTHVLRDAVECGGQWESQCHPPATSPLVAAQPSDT

Regarding `Nc1c(Cl)cc(-c2nnc(C3CCN(C4CC4)CC3)o2)c2c1CCCO2.Nc1c(Cl)cc(-c2nnc(C3CCN(C4CC4)CC3)o2)c2c1CCCO2.O=C(O)/C=C/C(=O)O` [Example 1, 6-Chloro-8-[5-(1-cyclopropyl-piperidin-4-yl)-[1,3,4]oxadiazol-2-yl]-chroman-5-ylamine hemi fumarate], the EC50 in data set [1] worked out at 28.5 nM. Besides, in the data set on Male Wister rats, the “Exploration time mean ± S.E.M, Familiar object” value was found to be 5.08 ± 0.1 s; the “Exploration time mean ± S.E.M, Novel object” value is 13.80 ± 2.20 s; the Inference entry is “Active”.
As to `Nc1c(Cl)cc(-c2nnc(C3C4CN(CC5CCC5)CC43)o2)c2c1CCCO2` (centres unmarked) [Example 23, 6-Chloro-8-[5-(3-cyclobutylmethyl-3-aza-bicyclo[3.1.0]hex-6-yl)-[1,3,4]oxadiazol-2-yl]-chroman-5-ylamine oxalate salt], in data set [1], the EC50 came to 20 nM.
For `CCOC(=O)N1CCC(N2CCC(c3nnc(-c4cc(Cl)c(N)c5c4OCC5)o3)CC2)CC1` [Example 34, 4-[5-(4-Amino-5-chloro-2,3-dihydro-benzofuran-7-yl)-[1,3,4]oxadiazol-2-yl]-[1,4′]bipiperidinyl-1′-carboxylic acid ethyl ester oxalate], the EC50 in data set [1] was determined as 5 nM.
On the same count and under the same terms, as for `Nc1c(Cl)cc(-c2nnc(C3CCN(C4CCCC4)CC3)o2)c2c1CCCO2` [Example 17, 6-Chloro-8-[5-(1-cyclopentyl-piperidin-4-yl)-[1,3,4]oxadiazol-2-yl]-chroman-5-ylamine tartarate salt], the figure is 2.3 nM.
In the case of `Nc1c(Cl)cc(-c2nnc(C3CCN(C4CC4)CC3)o2)c2c1CCO2` [Example 27, 5-Chloro-7-[5-(1-cyclopropyl-piperidin-4-yl)-[1,3,4]oxadiazol-2-yl]-2,3-dihydro-benzofuran-4-ylamine oxalate salt], the EC50 in data set [1] was found to be 60 nM.
The same measure, in the same setting: to `Nc1c(Cl)cc(-c2nnc(C3CCN(CC4CC4)CC3)o2)c2c1CCCO2` [Example 11, 6-Chloro-8-[5-(1-cyclopropylmethyl-piperidin-4-yl)-[1,3,4]oxadiazol-2-yl]-chroman-5-ylamine] belongs 10.2 nM.
The same measure, in the same setting: as for `CC(C)N1CC2C(C1)C2c1nnc(-c2cc(Cl)c(N)c3c2OCCC3)o1` (centres unmarked) [Example 22, 6-Chloro-8-[5-(3-isopropyl-3-aza-bicyclo[3.1.0]hex-6-yl)-[1,3,4]oxadiazol-2-yl]-chroman-5-ylamine oxalate salt], the figure is 48 nM; as for `Nc1c(Cl)cc(-c2nnc(C3CCN(CC4CCC4)CC3)o2)c2c1CCCO2` [Example 10, 6-Chloro-8-[5-(1-cyclobutylmethyl-piperidin-4-yl)-[1,3,4]oxadiazol-2-yl]-chroman-5-ylamine], 5.7 nM.
`Nc1c(Cl)cc(-c2nnc(C3CCN(C4CCOCC4)CC3)o2)c2c1CCCO2.O=C(O)C(=O)O` [Example 25, 6-Chloro-8-{5-[1-(tetrahydro-pyran-4-yl)-piperidin-4-yl]-[1,3,4]oxadiazol-2-yl}-chroman-5-ylamine oxalate salt]: the EC50 in data set [1] was determined as 5.7 nM. Besides, in the data set on Male Wister rats, the “Exploration time mean ± S.E.M, Familiar object” value turned out to be 5.93 ± 0.87 s; the “Exploration time mean ± S.E.M, Novel object” value is 14.70 ± 2.34 s; the Inference entry was “Active”.
Take `COCCCN1CCC(c2nnc(-c3cc(Cl)c(N)c4c3OCCC4)o2)CC1` [Example 13, 6-Chloro-8-{5-[1-(3-methoxy-propyl)-piperidin-4-yl]-[1,3,4]oxadiazol-2-yl}-chroman-5-ylamine]: the EC50 in data set [1] is 20.4 nM.
On the same count and under the same terms, to `Nc1c(Cl)cc(-c2nnc(C3CCN(C4CCOCC4)CC3)o2)c2c1CCO2` [Example 7, 5-Chloro-7-{5-[1-(tetrahydropyran-4-yl)piperidin-4-yl]-[1,3,4]oxadiazol-2-yl}-2,3-dihydro benzofuran-4-yl amine oxalate salt] belongs 7 nM; to `CC(C)n1nc(-c2nnc(CCN3CCCCC3)o2)c2ccccc21` [Example 49, 1-Isopropyl-3-[5-(2-piperidin-1-yl-ethyl)-[1,3,4]oxadiazol-2-yl]-1H-indazole oxalate], 181 nM.
Same read-out and setting: as for `Nc1c(Cl)cc(-c2nnc(C3C4CN(CC5CC5)CC43)o2)c2c1CCCO2` (centres unmarked) [Example 24, 6-Chloro-8-[5-(3-cyclopropylmethyl-3-aza-bicyclo[3.1.0]hex-6-yl)-[1,3,4]oxadiazol-2-yl]-chroman-5-ylamine], the figure is 25 nM.
Consider `Nc1c(Cl)cc(-c2nnc(C3CCN(CC4CCOCC4)CC3)o2)c2c1CCO2` [Example 33, 5-Chloro-7-{5-[1-(tetrahydro-pyran-4-ylmethyl)-piperidin-4-yl]-[1,3,4]oxadiazol-2-yl}-2,3-dihydro-benzofuran-4-ylamine oxalate], for which the EC50 in data set [1] turned out to be 21 nM.
As to `CC(C)N1CCC(c2nnc(-c3cc(Cl)c(N)c4c3OCCC4)o2)CC1` [Example 12, 6-Chloro-8-[5-(1-isopropyl-piperidin-4-yl)-[1,3,4]oxadiazol-2-yl]-chroman-5-ylamine], in data set [1], the EC50 was 15.3 nM.
The same measure, in the same setting: as for `Nc1c(Cl)cc(-c2nnc(C3CCN(C4CCC4)CC3)o2)c2c1CCO2` [Example 28, 5-Chloro-7-[5-(1-cyclobutyl-piperidin-4-yl)-[1,3,4]oxadiazol-2-yl]-2,3-dihydro-benzofuran-4-ylamine oxalate salt], the figure is 10 nM.
Same read-out and setting: as for `Nc1c(Cl)cc(-c2nnc(C3CCN(C4CCOCC4)CC3)o2)c2c1OCCO2` [Example 30, 6-Chloro-8-{5-[1-(tetrahydro-pyran-4-yl)-piperidin-4-yl]-[1,3,4]oxadiazol-2-yl}-2,3-dihydro-benzo[1,4]dioxin-5-ylamine oxalate salt], the figure is 7.3 nM; as for `Nc1c(Cl)cc(-c2nnc(C3CCN(C4CC4)CC3)o2)c2c1OCCO2` [Example 29, 6-Chloro-8-[5-(1-cyclopropyl-piperidin-4-yl)-[1,3,4]oxadiazol-2-yl]-2,3-dihydro-benzo[1,4]dioxin-5-ylamine oxalate salt], 21.5 nM.
As for `COCCCN1CCC(c2nnc(-c3nn(C(C)C)c4ccccc34)o2)CC1.O=C(O)C(=O)O` [Example 3, 1-isopropyl-3-{5-[1-(3-methoxypropyl)piperidin-4-yl]-[1,3,4]oxadiazol-2-yl}-1H-indazole oxalate salt], the Tmax in data set [2] (5 mg/kg, intravenous (bolus)) came out at 4.8 min; in data set [2] (10 mg/kg, oral (gavage)), 25.2 ± 7.2 min.
On to `CC(C)n1nc(-c2nnc(C3CCN(CC4CC4)CC3)o2)c2ccccc21` [Example 39, 3-[5-(1-Cyclopropylmethyl-piperidin-4-yl)-[1,3,4]oxadiazol-2-yl]-1-isopropyl-1H-indazole], for which, in data set [2] (5 mg/kg, intravenous (bolus)), the AUC(0-t) is 1060 ± 163 ng·h/mL, the Tmax was 4.8 min and the half-life was 99 ± 28.2 min. Moreover, in data set [2] (10 mg/kg, oral (gavage)), the AUC(0-t) came to 394 ± 174 ng·h/mL, the Tmax worked out at 25.2 ± 7.2 min and the half-life is 82.8 ± 4.2 min.
Regarding `Nc1c(Cl)cc(-c2nnc(CCN3CCCCC3)o2)c2c1CCCO2` [Example 18, 6-Chloro-8-[5-(2-piperidin-1-yl-ethyl)-[1,3,4]oxadiazol-2-yl]-chroman-5-ylamine], the half-maximal effective concentration (EC50) in data set [1] was determined as 53 nM.
Same read-out and setting: as for `COCCCN1CCC(c2nnc(-c3cc(Cl)c(N)c4c3OCCO4)o2)CC1` [Example 31, 6-Chloro-8-{5-[1-(3-methoxy-propyl)-piperidin-4-yl]-[1,3,4]oxadiazol-2-yl}-2,3-dihydro-benzo[1,4]dioxin-5-ylamine oxalate salt], the figure is 16.9 nM.
The same measure, in the same setting: as for `CCOC(=O)N1CCC(N2CCC(c3nnc(-c4cc(Cl)c(N)c5c4OCCO5)o3)CC2)CC1` [Example 6, 4-[5-(8-amino-7-chloro-2,3-dihydrobenzo[1,4]dioxin-5-yl)-[1,3,4]oxadiazol-2-yl]-[1,4′]bipiperidinyl-1′-carboxylic acid ethyl ester oxalate salt], the figure is 4.2 nM.
